In PMC10845954, “Novel antimicrobial peptides identified in legume plant, Medicago truncatula” (Microbiology Spectrum, 2024):
Where a SMILES comes first, the peptide text is derived from it.

System: leukemia (K562) cell line
Experiment: Cell viability (MTT assay)
Type: cell-based, human
Conditions: 100 µM, 24 hrs exposure, absorbance 540 nm, cutoff 20%, mean of four independent experiments
Procedure: Dulbecco’s modified Eagle medium (DMEM) supplemented with 10% fetal bovine serum (FBS) and 1% penicillin (10.000 IU/mL)/streptomycin (50 mg/mL) was used to grow the […] human leukemia cell line (K562) in flasks at 37°C in a humidified environment of 5% CO2/air.
K562 cells were cultivated in DMEM with FBS 10% and penicillin–streptomycin 1%, and they were incubated at 37°C with 5% CO2 present. Using the MTT assay, the cytotoxicity of the three NCRs was evaluated. K562 cells were grown at a density of 3–4 × 10^4 cells per well in a 96-well plate and allowed to adhere for 24 hrs. […] Using a microplate reader, absorbance was measured at 540 nm. […]
Fig 7 The toxicity % of the NCRs (NCR094 and NCR992) toward leukemia cell line (K562). […] Absorbance was read at 540, and the toxicity% was calculated from four independent experiments, and the results were represented as average of the % toxicity and standard deviations from four independent experiments. […]
The cells were treated with were treated with 10-fold concentration (100, 10, 1, 0 μM) of NCR992.1 After 24 hrs exposure, MTT were added, and cells were incubated for 4 hrs. […] Absorbance was read at 540 and the toxicity% were calculated and the results were presented as means and error bars were ± SD values from four independent experiments.

## CC[C@H](C)[C@H](NC(=O)[C@H](CCSC)NC(=O)CNC(=O)[C@H](Cc1ccccc1)NC(=O)[C@H](CCC(=O)O)NC(=O)[C@H](CS)NC(=O)[C@@H](N)CCSC)C(=O)N[C@@H](CCCNC(=N)N)C(=O)N[C@@H](CCCNC(=N)N)C(=O)N[C@@H](CS)C(=O)N[C@H](C(=O)N[C@@H](CO)C(=O)N[C@@H](Cc1ccc(O)cc1)C(=O)N[C@@H](CCCCN)C(=O)N[C@@H](CS)C(=O)N[C@@H](CCC(N)=O)C(=O)N[C@@H](CS)C(=O)N[C@@H](Cc1c[nH]cn1)C(=O)N[C@@H](CCC(=O)O)C(=O)N[C@@H](C)C(=O)N[C@@H](Cc1ccc(O)cc1)C(=O)O)[C@@H](C)CC [NCR992] (H-MCEFGMIRRCISYKCQCHEAY-OH; N-terminus and C-terminus assumed)
  toxicity % toward K562: 8.54%
